Compound | melting point
N#CN=C1CCCN1C1=CC(CF)(CF)Oc2ccc(C(F)(F)C(F)(F)F)cc21 | 207 to 210 °C
O=C1C(=Cc2cccnc2)N2CCC1CC2 | 113 °C
O=C(O)c1cc(S)cc2c1OCCO2 | 191 to 192 °C
c1ccc2c(c1)CC(N1CCN(c3ccc4c(c3)OCCO4)CC1)C2 | 183 to 185 °C
NC(=O)[C@@H]1[C@H](Nc2c(Br)cnc3[nH]c(-c4ccc(CN5CCOCC5)cc4)nc23)[C@H]2C=C[C@@H]1C2 | 217 to 219 °C
O=C1CCCCN1C1=CC(CF)(CF)Oc2ccc(C(F)(F)C(F)(F)F)cc21 | 149 to 150 °C
O=C1CCCC1Oc1cccc2onc(OCC3CCN(CC4(O)CCOCC4)CC3)c12 (stereo not drawn) | 133 °C
COC1(c2cc(F)cc(Sc3ccc4c(c3)SCC(=O)N4C)c2)CCOCC1 | 131 to 133 °C
C=CCON=C(C(=O)O)c1nc(NC=O)sc1Cl | 166 to 167 °C
Cc1cc(C(C)(C)C)c(Cl)c(C)c1SSc1c(C)cc(C(C)(C)C)c(Cl)c1C | 128 to 129 °C
Cc1cnc2[nH]cc(/C=C3\N=C(NCC(C)C)NC3=O)c2c1 | 338 to 339 °C
O=C(Nc1cc(S(=O)(=O)NC(CO)CO)sc1Cl)c1cnn2c(C(F)(F)F)cc(-c3ccc(C(F)(F)F)cc3)nc12 | 225 °C
Cc1ccc(C)c(Oc2noc(=O)n2S(=O)(=O)N(C)C)c1 | 101 to 103 °C
Cc1cn2c(N)c(Cl)cc(C(=O)NCC3CCN(CC(=O)C(C)(C)C)CC3)c2n1 | 198 °C
O=C(O)c1ccc(-c2nc(-c3ccc(F)cc3)c(-c3ccncc3)[nH]2)cc1 | 289 to 290 °C
Cc1cn([C@@H]2C[C@H](C(=O)OC(c3ccccc3)c3ccccc3)N(CCNC(=O)OCC3c4ccccc4-c4ccccc43)C2)c(=O)n(C(=O)c2ccccc2)c1=O | 94 to 98 °C
COC(=O)c1cc(-c2nc(CCl)c(C)o2)ccc1C | 89 to 90 °C
CC(C)(C)c1ccc2sc3cc(-c4nnn[nH]4)ccc3c(=O)c2c1 | 277 °C
[N-]=[N+]=NCC(COC(C(F)(F)F)(C(F)(F)F)C(F)(F)F)(COC(C(F)(F)F)(C(F)(F)F)C(F)(F)F)C(=O)O | 97 to 98 °C
CCCCCCCCCCc1ccc2ccc(OC)cc2c1 | 29.9 to 30.8 °C
COc1ccc(Sc2c(O)c3c(Cl)cc(Cl)cc3[nH]c2=O)cc1 | 280 to 282 °C
CN1CC[C@]2(c3cccc(O)c3)CC=CC[C@@H]2C1 (relative stereo) | 159 °C
COc1ccccc1Oc1c(NS(=O)(=O)c2ccc3ccccc3c2)nc(N2CCOCC2)nc1OCCOc1ncc(Br)cn1 | 178 to 182 °C

Compound | melting point
Cc1cc(C(N)=O)ncc1C(c1c(F)ccc(F)c1F)S(=O)(=O)c1ccc2ccoc2c1 (stereo not drawn) | 237 to 240 °C
CC(C)(O)Cn1c(CCO)nc2c(N)nc3cccnc3c21 | 194 to 195 °C
Nc1ccc(OCCCl)cc1 | 91 to 92 °C
Cc1ccc(Cc2cnc(NCCCNc3ccccn3)[nH]c2=O)cn1 | 163 to 165 °C
CC1(Cc2cc3[nH]c(=O)oc3cc2Br)OCCO1 | 117 to 119 °C
C=CCNC(=O)C(C)=Cc1cc([N+](=O)[O-])ccc1Cl | 111 to 112 °C
CC[C@@H]1C(=O)N(c2ccc(C#N)c(Cl)c2)[C@@H](C)[C@H]1O | 109 to 110 °C
Cc1ccc2[nH]c(=O)n(CCS)c(=O)c2c1 | 309 to 311 °C
N#CSc1ccc(N)c(C(F)(F)F)c1 | 52 to 55 °C
CC1=CC(c2cccc(Cl)c2)C2=C(CC(C)(C)CC2=O)N1 (stereo not drawn) | 183 to 185 °C
Cc1nc(C(=O)NC2CC2)c2n1-c1ccc(Cl)cc1C(c1ccccc1F)=NC2 | 196 to 197 °C
CCOC(=O)c1cnc(SC)nc1NC(C)C | 159 to 160 °C
CCc1nc2nccc(-c3cccnc3)n2n1 | 147 to 149 °C
CC1(C)OCC(C(O)CNC(=O)c2cc(C(=O)NCC(O)C3COC(C)(C)O3)cc(S(=O)(=O)Nc3ccc(F)c(C(F)(F)F)c3)c2)O1 (stereo not drawn) | 217 to 218 °C
Cc1ccc(NC(=O)c2ccc(CN(C)C)c(C(F)(F)F)c2)cc1-c1ccc2ccncc2c1 | 169 to 172 °C
Cc1cc(Cl)ccc1-c1cc(Cl)cc2c1NC(CN)CO2 (stereo not drawn) | 102 °C
Nc1ccc(N2CCOCC2)c(C(=O)O)c1 | 307 to 308 °C
Cc1ccc(C)n1Nc1ccc(Cl)nn1 | 173 to 175 °C
COc1ccc(Nc2nc(N)nc3c2ncn3C2CC(F)C(CO)O2)cc1 (stereo not drawn) | 190 to 191 °C
CC(=O)SCC(CC#N)C(=O)O (stereo not drawn) | 110 to 112 °C
O=C(C=Cc1ccc(Cl)cc1)C=Cc1ccc(Cl)cc1 | 187 to 189 °C
CCCCCCCCCCCCCCCCCCNC(=O)OCC(CNS(=O)(=O)CCCI)COC (stereo not drawn) | 69 to 70 °C
Oc1ccc(OCc2nnc(C3CC3)s2)cc1 | 79 to 83 °C

Further lines, results first:

melting point | Compound
205 to 207 °C | CC(C)Oc1cccc(NC(=O)OCc2c(-c3ccccc3)c3cc(Cl)ccc3c(=O)n2C)c1
93 to 95 °C | CC(Cc1ccc(OCc2ccccc2)cc1)C(=O)O (stereo not drawn)
120 to 121 °C | CCOC(OCC)c1cc(NC(c2ccccc2)(c2ccccc2)c2ccccc2)c(F)c(CC2CC2)n1
235 to 236 °C | NS(=O)(=O)c1cc(C(=O)O)cc(SCc2ccccc2)c1Oc1ccccc1
253 to 255 °C | CCNC(=O)c1cnn(C)c1C(=O)Nc1ccn2nc(-c3ccccc3)nc2c1
198 to 199 °C | COc1ccc(C(=O)Nc2ccccc2)cc1Nc1cc(C)cc(C)c1
136 to 137 °C | COc1ccc2c(-c3ccccc3F)csc2c1Cl
182 to 184 °C | CNc1ccc2[nH]c3cc(-c4ccccc4Cl)c4c(c3c2c1)C(=O)NC4=O
163 °C | O=c1nc(-c2ccnc(-c3ccccc3)c2)sc2ccccc12
105 to 108 °C | O=C(c1ccc2[nH]ccc2c1)N1CCN(CCc2ccccc2)CC1
162 to 165 °C | CC(C)[C@H](NC(=O)OCc1csc(N(C)C)n1)C(=O)N[C@@H](Cc1ccccc1)C[C@H](O)[C@H](Cc1ccccc1)NC(=O)OCc1cncs1
113 to 115 °C | CC(C)(C)NC(=O)[C@@H]1C[C@H](O)CN1C(=O)[C@@H](O)[C@H](Cc1ccccc1)NC(=O)[C@H](CC(N)=O)NC(=O)OCc1ccccc1
292 to 296 °C | COC(=O)c1ccc(O)cc1NC(=O)C=Cc1ccc(-c2ccccc2)cc1
92 to 93 °C | CCOC(=O)c1cnc(-c2cc3cccc([N+](=O)[O-])c3n2COC)s1
140 to 142 °C | CC(C)c1nn(-c2ccccn2)cc1CCCOc1ccccc1CC(=O)O
185 to 187 °C | Fc1ccc(Nc2nnc(Cc3ccncc3)c3ccccc23)cc1Cl
98 to 104 °C | COc1cc(OCc2ccccn2)ccc1/C=C/c1cc(/C=C/c2ccc3[nH]ccc3c2)n[nH]1
206 to 208 °C | CCOC(=O)C1=C(CS(=O)c2ccccc2)Nc2ccnc(OC(C)C)c2C1c1ccccc1C(F)(F)F (stereo not drawn)
171 to 173 °C | CCOc1ccccc1-c1ccc2c(c1)C=C(C(=O)Nc1ccc(CN(C)C3CCOCC3)cc1)CCS2(=O)=O
112 to 115 °C | COc1cc2c(cc1OCc1ccccc1)C(Sc1ccc(Cl)cc1)(C(N)=CC(=O)OC(C)(C)C)C2 (stereo not drawn)
139 to 140 °C | Nc1ccc(CC(=O)O)cc1Br
178 to 180 °C | O=C(O)c1ccc(OS(=O)(=O)C(F)(F)F)cc1
240 °C | O=C(C=Cc1cccnc1)N1CCc2c([nH]c3ccccc23)C1c1ccc2c(c1)OCO2 (stereo not drawn)
180 to 182 °C | COc1ccc(-c2ccc(C(N)=O)cc2)cc1OCCCCc1ccccc1
94 to 95 °C | CCOc1ccc2cccnc2c1N
192 to 196 °C | CC(C)COc1cc(C(=O)O)cc(N)c1C(=O)c1ccccc1

melting point | Compound
40 °C | COC(=O)CNc1cccc(C)c1
300 to 302 °C | COC(=O)c1ccc2c(c1)S(=O)(=O)c1ccccc1NC2=O
205 to 207 °C | CC(C)Oc1cc(O)c2c(=O)cc(Sc3ccc(O)cc3)oc2c1
172 to 174 °C | COc1cc(CC(=O)NCC(=O)N(CCC(=O)O)Cc2ccc(OC)c(OC)c2)ccc1NC(=O)Nc1ccccc1C
81 to 83 °C | CN=Cc1cnc(-c2ccccc2Cl)s1
178 to 182 °C | O=C(O)c1cccc(OCc2ccc3ccccc3n2)c1
196 to 197 °C | Cc1ccc(C(=O)NC(Cc2cccc(Br)c2)C(=O)O)cc1 (stereo not drawn)
> 260 °C | O=C(O)c1ccc2oc(-c3ccc(C(F)(F)F)nc3)cc2c1
145 °C | COc1ccc(C2CSc3ccccc3NC2=O)cc1 (stereo not drawn)
104 °C | COc1ccc(-c2c(OCCN3CCOCC3)c3ccccc3oc2=O)cc1
220 to 222 °C | N#Cc1ccc2c(c1)S(=O)c1ccccc1C=C2 (stereo not drawn)
173 to 174 °C | O=C1C(c2ccccc2)=C(c2ccccc2)C(=O)N1c1ccccc1
158 to 160 °C | Nc1ccc(NC(=O)N2CCc3cc(S(=O)(=O)N4CC(c5ccccc5)NC4=O)ccc32)cc1 (stereo not drawn)
122 to 123 °C | COc1nc(OC)c(C(C)C)c(C(=O)c2cc(C)cc(Br)c2)n1
> 300 °C | CN(C)Cc1cc2nc(C(=O)O)c(=O)[nH]c2cc1[N+](=O)[O-]
107 to 109 °C | C=C(c1cc(F)ccc1OCCCC)n1ccnc1
202 to 204 °C | COc1ccc2c(c1)NC(=O)CC(C(=O)O)C2 (stereo not drawn)
160 to 166 °C | Cc1cc(C)c(COc2cccnc2N)c(C)c1
202 to 203 °C | N#CC(=CNc1ccccc1)Cc1cnc2ccccc2c1
> 350 °C | CC(C)(C)NC(=O)Nc1nc2nc(N)ncc2cc1-c1ccncc1
178 °C | COc1ccc(-c2nc(-c3ccccc3)ccc2C(=O)O)cc1OC
203 to 204 °C | COC(=O)c1ccccc1C=CC(=O)N1CCc2c([nH]c3ccccc23)C1c1ccc2c(c1)OCO2 (stereo not drawn)
163 to 165 °C | CC(C)c1nc2c(N)nc3ccccc3c2s1
152 to 153 °C | Cc1cc(-c2cnn(-c3ccccc3)c2)ccc1OC=C1C=CC=CC1n1nnn(C)c1=O (stereo not drawn)
231 to 232 °C | CS(=O)(=O)Nc1cc(OCCNC2CCCC2)ccc1C(=O)Nc1ccccc1
105 to 110 °C | CC(=O)Nc1cc2c(cc1Cl)CCN(C)C[C@@H]2c1ccccc1
